Assay results as given in US9181223B2, “2-aminopyrimidin-6-ones and analogs exhibiting anti-cancer and anti-proliferative activities” (Deciphera Pharmaceuticals, LLC, priority 2013, dated 2015).

Assays:
[1] = biological target: T1, unphosphorylated c-KIT kinase (uKIT, Seq. ID no. 2) (Homo sapiens, UniProt P10721); experiment: uKit kinase assay (ADP production coupled to pyruvate kinase/lactate dehydrogenase); assay type: biochemical; settings: enzymatic assay, ATP 2000 μM; read-out: uKIT
T1 construct: uKit with N-terminal GST fusion used for screening
T1 sequence (P10721 with tags, fused parts or gaps): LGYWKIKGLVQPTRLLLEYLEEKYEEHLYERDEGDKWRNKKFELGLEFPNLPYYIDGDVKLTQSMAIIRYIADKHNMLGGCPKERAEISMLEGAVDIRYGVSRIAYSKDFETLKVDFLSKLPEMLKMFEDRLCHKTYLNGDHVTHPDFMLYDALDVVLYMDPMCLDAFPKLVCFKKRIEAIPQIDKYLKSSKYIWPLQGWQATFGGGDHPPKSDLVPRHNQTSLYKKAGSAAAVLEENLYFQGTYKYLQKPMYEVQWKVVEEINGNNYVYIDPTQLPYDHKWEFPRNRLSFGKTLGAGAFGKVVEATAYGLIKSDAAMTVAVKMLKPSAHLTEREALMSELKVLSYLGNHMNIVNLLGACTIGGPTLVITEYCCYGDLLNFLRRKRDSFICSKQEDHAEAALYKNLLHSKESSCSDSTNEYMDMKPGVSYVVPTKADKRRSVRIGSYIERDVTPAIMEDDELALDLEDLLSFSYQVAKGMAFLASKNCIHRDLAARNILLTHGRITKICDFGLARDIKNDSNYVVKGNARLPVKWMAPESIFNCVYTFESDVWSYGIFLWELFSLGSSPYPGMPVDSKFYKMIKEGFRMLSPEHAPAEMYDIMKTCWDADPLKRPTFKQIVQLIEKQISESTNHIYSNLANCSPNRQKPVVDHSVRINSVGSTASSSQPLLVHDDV
Description: In this assay, the oxidation of NADH (thus the decrease at A340 nm) was continuously monitored spectrophometrically. […] The inhibition reaction was started by mixing serial diluted test compound with the above reaction mixture. The absorption at 340 nm was monitored continuously for 4 hours at 30° C. on Synergy 2 plate reader (BioTech).

[2] = biological target: T2, unphosphorylated PDGFRβ kinase (uPDGFRβ, Seq. ID No. 3) (Homo sapiens, UniProt P09619); experiment: uPDGFRβ kinase assay (ADP production coupled to pyruvate kinase/lactate dehydrogenase); assay type: biochemical; settings: enzymatic assay, ATP 500 μM
T2 construct: purchased DeCode
T2 sequence (P09619 557-1106): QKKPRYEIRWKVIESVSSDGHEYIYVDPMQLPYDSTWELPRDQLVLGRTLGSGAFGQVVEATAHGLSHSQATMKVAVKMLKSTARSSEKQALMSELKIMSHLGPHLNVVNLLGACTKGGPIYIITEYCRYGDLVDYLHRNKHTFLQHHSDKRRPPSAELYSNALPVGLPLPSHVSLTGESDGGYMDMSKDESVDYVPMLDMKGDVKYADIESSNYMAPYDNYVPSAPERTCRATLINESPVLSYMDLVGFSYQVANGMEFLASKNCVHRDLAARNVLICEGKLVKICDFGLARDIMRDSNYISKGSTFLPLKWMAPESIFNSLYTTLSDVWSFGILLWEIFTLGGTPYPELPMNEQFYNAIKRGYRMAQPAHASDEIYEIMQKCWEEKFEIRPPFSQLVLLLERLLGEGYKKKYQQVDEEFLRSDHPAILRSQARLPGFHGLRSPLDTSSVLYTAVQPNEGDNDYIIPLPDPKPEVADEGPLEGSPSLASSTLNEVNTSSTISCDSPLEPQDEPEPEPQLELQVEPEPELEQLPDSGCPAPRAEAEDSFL
Description: Unphosphorylated […]β) Kinase (Seq. ID No. 3) Assay Activity of unphosphorylated PDGFRβ kinase ([…] No. 3) was determined by following the production of ADP from the kinase reaction with ATP and poly E4Y as substrates through coupling with the pyruvate kinase/lactate dehydrogenase system (e.g., Schindler et al. Science (2000) 289: 1938-1942). In this assay, the oxidation of NADH (thus the decrease at A340 nm) was continuously monitored spectrophometrically. The reaction mixture (100 μL) contained PDGFRβ (DeCode, 15.7 nM), polyE4Y (2.5 mg/mL), MgCl2 (10 mM), pyruvate kinase (4 units), lactate dehydrogenase (0.7 units), phosphoenol pyruvate (1 mM) and NADH (0.28 mM) and ATP (500 μM) in a 90 mM Tris buffer containing 0.2% octyl-glucoside and 1% DMSO, at pH 7.5. The inhibition reaction was started by mixing serial diluted test compound with the above reaction mixture. The absorption at 340 nm was monitored continuously for 4 h at 30° C. on a Polarstar Optima or Synergy 2 plate reader. The reaction rate was calculated using the 1.5 to 2.5 h time frame. Percent inhibition was obtained by comparison of reaction rate with that of a control (i.e. with no test compound). IC50 values were calculated from a series of percent inhibition values determined at a range of inhibitor concentrations using software routines as implemented in the GraphPad Prism software package.

M-NFS-60 cells = experiment: M-NFS-60 cell proliferation assay (resazurin); assay type: cell-based; settings: 67 h incubation
Description: M-NFS-60 cells (catalog #CRL-1838) were obtained from the American Type Culture Collection (ATCC, Manassas, Va.). Briefly, cells were grown in suspension in RPMI 1640 medium supplemented with 10% characterized fetal bovine serum (Invitrogen, Carlsbad, Calif.), 0.05 mM 2-mercaptoethanol, and 20 ng/mL mouse recombinant macrophage colony stimulating factor (M-CSF) at 37° C., 5% CO2, and 95% humidity. Cells were allowed to expand until reaching saturation at which point they were subcultured or harvested for assay use.
M-NFS-60 Cell Proliferation Assay
A serial dilution of test compound was dispensed into a 384-well black clear bottom plate (Corning, Corning, N.Y.). Two thousand five hundred cells were added per well in 50 μL complete growth medium. Plates were incubated for 67 h at 37° C., 5% CO2, and 95% humidity. At the end of the incubation period 10 μL of a 440 µM solution of resazurin (Sigma, St. Louis, Mo.) in PBS was added to each well and incubated for an additional 5 h at 37° C., 5% CO2, and 95% humidity. Plates were read on a Synergy2 reader (Biotek, Winooski, Vt.) using an excitation of 540 nm and an emission of 600 nm. IC50 values were calculated from a series of percent inhibition values determined at a range of inhibitor concentrations using software routines as implemented in the GraphPad Prism software package.

osteoclast precursors = experiment: Osteoclast tartrate-resistant acid phosphatase assay; assay type: cell-based; settings: tartrate-resistant acid phosphatase activity, RANKL and M-CSF, 7-14 days
Description: Osteoclast Tartrate-Resistant Acid Phosphatase Assay
A serial dilution of test compound was dispensed into a 384-well black clear bottom plate (Nalge Nunc International, Rochester, N.Y.). Compound was diluted by the addition of DMEM media supplemented with 10% characterized fetal bovine serum (Invitrogen, Carlsbad, Calif.). Diluted compound was transferred to a 384-well black clear bottom plate. Two-thousand five hundred osteoclast precursors (Lonza, Walkersville, Md.) were added per well in growth media containing Receptor Activator of Nuclear Factor Kappa-beta ligand (RANKL) and M-CSF (R&D Systems, Minneapolis, Minn.). Plates were incubated for 7-14 days at 37 degrees Celsius, 5% CO2, and 95% humidity to allow differentiation of osteoclast precursors. At the end of the incubation period, 10 μL of supernatant from each well was transferred to a clear 384-well plate. Tartrate-resistant acid phosphatase activity in the supernatant samples was determined using an acid phosphatase assay kit (Sigma, St. Louis, Mo.). Absorbance was measured at 550 nm using a plate reader. Data was analyzed using Prism software (Graphpad, San Diego, Calif.) to calculate IC50 values.

[3] = biological target: T3, unphosphorylated c-FMS kinase (uFMS, Seq. ID no. 1) (Homo sapiens, UniProt P07333); experiment: uFMS kinase assay (ADP production coupled to pyruvate kinase/lactate dehydrogenase); assay type: biochemical; settings: enzymatic assay, ATP 500 μM
T3 construct: purchased Millipore
T3 sequence (P07333 538-972): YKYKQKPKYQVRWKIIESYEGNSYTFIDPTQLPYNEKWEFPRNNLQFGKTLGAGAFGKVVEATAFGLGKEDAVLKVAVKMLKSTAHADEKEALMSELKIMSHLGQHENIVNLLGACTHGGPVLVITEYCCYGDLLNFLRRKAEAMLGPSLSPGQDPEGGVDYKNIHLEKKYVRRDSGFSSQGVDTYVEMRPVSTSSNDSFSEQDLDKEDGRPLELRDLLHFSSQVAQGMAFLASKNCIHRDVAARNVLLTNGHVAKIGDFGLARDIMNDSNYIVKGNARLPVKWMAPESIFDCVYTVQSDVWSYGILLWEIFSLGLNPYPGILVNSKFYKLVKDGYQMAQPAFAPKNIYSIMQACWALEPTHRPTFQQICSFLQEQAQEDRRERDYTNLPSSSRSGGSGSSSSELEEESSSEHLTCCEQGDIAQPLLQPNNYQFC
Description: uFMS Kinase (Seq. ID No. 1) Assay
In this assay, the oxidation of NADH (thus the decrease at A340 nm) was continuously monitored spectrophometrically. The reaction mixture (100 μL) contained FMS (purchased from Millipore) (10 nM), polyE4Y (1 mg/mL), MgCl2 (10 mM), pyruvate kinase (4 units), lactate dehydrogenase (0.7 units), phosphoenol pyruvate (1 mM), NADH (0.28 mM) and ATP (500 μM) in 90 mM Tris buffer containing 0.2% octyl-glucoside and 1% DMSO, pH 7.5. The inhibition reaction was started by mixing serial diluted test compound with the above reaction mixture. The absorption at 340 nm was monitored continuously for 4 hours at 30° C. on Synergy 2 plate reader. The reaction rate was calculated using the 3 to 4 h time frame. Percent inhibition was obtained by comparison of reaction rate with that of a control (i.e. in the absence of test compound). IC50 values were calculated from a series of percent inhibition values determined at a range of inhibitor concentrations using software routines as implemented in the GraphPad Prism software package.

[4] = biological target: T4, phospho-FMS in THP-1 cells (Homo sapiens, UniProt P07333); experiment: Phospho-FMS ELISA assay in THP-1 cells; assay type: cell-based; settings: 4 hours compound, M-CSF stimulation 5 minutes, read-out: pFMS inhibition in THP-1 cells
T4 construct: endogenous in cells; host or cells: THP-1 (ATCC TIB-202)
T4 sequence (P07333 20-972): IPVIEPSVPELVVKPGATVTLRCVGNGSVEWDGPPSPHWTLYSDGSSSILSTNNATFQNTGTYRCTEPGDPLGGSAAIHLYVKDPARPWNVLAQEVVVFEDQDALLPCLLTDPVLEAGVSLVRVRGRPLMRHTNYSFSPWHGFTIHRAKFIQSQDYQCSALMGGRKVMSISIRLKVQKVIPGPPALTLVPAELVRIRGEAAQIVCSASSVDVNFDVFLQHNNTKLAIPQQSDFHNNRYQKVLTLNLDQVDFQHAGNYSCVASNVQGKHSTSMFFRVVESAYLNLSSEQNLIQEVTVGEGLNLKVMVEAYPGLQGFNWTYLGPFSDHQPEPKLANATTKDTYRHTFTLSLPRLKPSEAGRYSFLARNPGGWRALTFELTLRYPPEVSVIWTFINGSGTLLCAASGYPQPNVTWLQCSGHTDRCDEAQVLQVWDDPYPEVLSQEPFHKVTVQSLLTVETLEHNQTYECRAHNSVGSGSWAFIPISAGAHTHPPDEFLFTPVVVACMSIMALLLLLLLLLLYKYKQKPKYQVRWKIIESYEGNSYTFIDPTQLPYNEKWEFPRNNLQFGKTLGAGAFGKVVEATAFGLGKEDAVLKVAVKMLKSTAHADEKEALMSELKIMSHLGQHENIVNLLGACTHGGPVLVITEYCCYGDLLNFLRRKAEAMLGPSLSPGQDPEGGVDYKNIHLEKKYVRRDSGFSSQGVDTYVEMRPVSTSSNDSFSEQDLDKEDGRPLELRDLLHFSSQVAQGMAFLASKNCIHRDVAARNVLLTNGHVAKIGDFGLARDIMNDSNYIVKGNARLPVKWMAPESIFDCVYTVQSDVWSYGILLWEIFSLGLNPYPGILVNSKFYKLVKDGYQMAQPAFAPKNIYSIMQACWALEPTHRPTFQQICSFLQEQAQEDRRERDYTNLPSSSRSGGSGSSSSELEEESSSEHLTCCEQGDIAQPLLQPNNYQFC
Description: Cells were allowed to expand until reaching 70-95% confluency at which point they were subcultured or harvested for assay use.
In a separate 96 well black clear bottom plate, one hundred and fifty thousand THP-1 cells were added per well in 100 μL in assay medium. Fifty microliters of diluted compound was then added to the cells. Plates were incubated for 4 hours at 37 degrees Celsius, 5% CO2, 95% humidity. […] Lysates were prepared and used to perform the phospho-FMS ELISA as described by the manufacturer (catalog #DYC3268, R & D Systems, Minneapolis, Minn.). GraphPad Prism was used to calculate IC50 values obtained from data generated from the ELISA assay.

| Structure (SMILES) | IC50 [1] | IC50 [2] | IC50 (osteoclast precursors) | IC50 [3] | IC50 [4] | IC50 (M-NFS-60 cells) |
| --- | --- | --- | --- | --- | --- | --- |
| Cc1cc(-c2cnc(NC(C)C)[nH]c2=O)ncc1Oc1ccnc(-c2cnn(C)c2)c1 [Example 18, 2-(isopropylamino)-5-(4-methyl-5-((2-(1-methyl-1H-pyrazol-4-yl)pyridin-4-yl)oxy)pyridin-2-yl)pyrimidin-4(3H)-one] | 10 to 100 nM | 10 to 100 nM | < 10 nM |  |  | < 10 nM |
| COC[C@@H](C)Nc1ncc(-c2ccc(Oc3ccnc(-c4cnn(C)c4)c3)c(C)n2)c(=O)[nH]1 [Example 22, (R)-2-((1-methoxypropan-2-yl)amino)-5-(6-methyl-5-((2-(1-methyl-1H-pyrazol-4-yl)pyridin-4-yl)oxy)pyridin-2-yl)pyrimidin-4(3H)-one] | > 1000 nM | > 1000 nM | < 10 nM | 10 to 100 nM | 100 to 1000 nM | 10 to 100 nM |
| COC[C@H]1CCCN1c1ncc(-c2ccc(Oc3ccnc(-c4cnn(C)c4)c3)c(C)n2)c(=O)[nH]1 [Example 23, (R)-2-(2-(methoxymethyl)pyrrolidin-1-yl)-5-(6-methyl-5-((2-(1-methyl-1H-pyrazol-4-yl)pyridin-4-yl)oxy)pyridin-2-yl)pyrimidin-4(3H)-one] | > 1000 nM | > 1000 nM | 10 to 100 nM | 10 to 100 nM |  | 10 to 100 nM |
| Cc1nc(-c2cnc(N3CC[C@H](N(C)C)C3)[nH]c2=O)ccc1Oc1ccnc(-c2cnn(C)c2)c1 [Example 24, (S)-2-(3-(dimethylamino)pyrrolidin-1-yl)-5-(6-methyl-5-((2-(1-methyl-1H-pyrazol-4-yl)pyridin-4-yl)oxy)pyridin-2-yl)pyrimidin-4(3H)-one] | > 1000 nM | > 1000 nM | 100 to 1000 nM | 100 to 1000 nM |  | 100 to 1000 nM |
| Cc1nc(-c2cnc(NCC(C)(C)C)[nH]c2=O)ccc1Oc1ccnc(-c2cnn(C)c2)c1 [Example 29, 5-(6-methyl-5-((2-(1-methyl-1H-pyrazol-4-yl)pyridin-4-yl)oxy)pyridin-2-yl)-2-(neopentylamino)pyrimidin-4(3H)-one] | 10 to 100 nM | 100 to 1000 nM | 10 to 100 nM | < 10 nM | 10 to 100 nM | 10 to 100 nM |
| Cc1nc(-c2cnc(N3CCC(F)(F)C3)[nH]c2=O)ccc1Oc1ccnc(-c2cnn(C)c2)c1 [Example 30, 2-(3,3-difluoropyrrolidin-1-yl)-5-(6-methyl-5-((2-(1-methyl-1H-pyrazol-4-yl)pyridin-4-yl)oxy)pyridin-2-yl)pyrimidin-4(3H)-one] | > 1000 nM | > 1000 nM | 10 to 100 nM | 10 to 100 nM | 10 to 100 nM | 100 to 1000 nM |

More lines, main results first:

| IC50 [1] | IC50 [2] | IC50 (osteoclast precursors) | IC50 [3] | IC50 [4] | Structure (SMILES) | IC50 (M-NFS-60 cells) |
| --- | --- | --- | --- | --- | --- | --- |
| 100 to 1000 nM | > 1000 nM | 10 to 100 nM | 10 to 100 nM | 10 to 100 nM | CCNc1ncc(-c2ccc(Oc3ccnc(-c4cnn(C)c4)c3)c(C)n2)c(=O)n1C [Example 25, 2-(ethylamino)-3-methyl-5-(6-methyl-5-((2-(1-methyl-1H-pyrazol-4-yl)pyridin-4-yl)oxy)pyridin-2-yl)pyrimidin-4(3H)-one] | 10 to 100 nM |
| > 1000 nM | > 1000 nM | 10 to 100 nM |  |  | COCCNc1ncc(-c2ccc(Oc3ccnc(-c4cnn(C)c4)c3)c(C)n2)c(=O)n1C [Example 26, 2-((2-methoxyethyl)amino)-3-methyl-5-(6-methyl-5-((2-(1-methyl-1H-pyrazol-4-yl)pyridin-4-yl)oxy)pyridin-2-yl)pyrimidin-4(3H)-one] | 10 to 100 nM |
| 10 to 100 nM | 10 to 100 nM | 10 to 100 nM | < 10 nM | 10 to 100 nM | Cc1nc(-c2cnc(NC(C)(C)C)[nH]c2=O)ccc1Oc1ccnc(-c2cnn(C)c2)c1 [Example 28, 2-(tert-butylamino)-5-(6-methyl-5-((2-(1-methyl-1H-pyrazol-4-yl)pyridin-4-yl)oxy)pyridin-2-yl)pyrimidin-4(3H)-one] | 10 to 100 nM |
